In patent EP4707280A1, “1,4-CINEOLE DERIVATIVE AND INTERMEDIATE THEREOF, HERBICIDE CONTAINING SAID DERIVATIVE AS ACTIVE INGREDIENT, METHOD FOR USING HERBICIDE, AND METHOD FOR PREPARING AGROCHEMICAL COMPOSITION” (HOKKO CHEMICAL INDUSTRY CO., LTD., priority 2023, dated 2024):

How the values were obtained:
Assay type in all cases: in vivo
[1] = test system: Echinochloa crus-galli var. formosensis; experiment: Test Example 6: herbicidal effect test by application during growth period of paddy rice (low dose); details: Echinochloa crus-galli; 7.5 g per 10 ares; applied seven days after sowing, flooded pots; 14 days after application; read-out: weed inhibition rate
Outline: (§1)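 Formulated compound, diluted in water, was dropped onto flooded pots seven days post-sowing at 7.5 g a.i. per 10 ares. Seeds had been sown 0-1 cm deep in puddled paddy soil under ~3 cm water in a glass greenhouse. Inhibition (%) assessed at 14 days; duplicate pots.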

[2] = test system: Digitaria ciliaris; experiment: Test Example 7: herbicidal effect test by soil application in upland field (low dose); details: Digitaria ciliaris, 7.5 g per 10 ares, sprayed one day after sowing, 14 days after application, read-out: weed inhibition rate
Outline: (§2)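 Pre-emergence soil treatment: 7.5 g a.i. per 10 a applied as water-diluted emulsifiable concentrate (100 L/10 a) to soil surface one day post-sowing in alluvial loam. Inhibition (%) assessed at 14 days, duplicate pots per concentration.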

[3] = test system: Echinochloa crus-galli; experiment: as above; details: Echinochloa crus-galli, 7.5 g per 10 ares, sprayed one day after sowing, 14 days after application, read-out: weed inhibition rate
Outline: as §2

[4] = test system: Scirpus juncoides; experiment: Test Example 1: herbicidal effect test by soil application in paddy rice; details: 120 g active ingredient per 10 ares, applied immediately after sowing, flooded pots, 14 days after application; for pest or weed control at 1200 g/ha: Schoenoplectiella juncoides, soil, 336 h, read-out: weed inhibition rate
Outline: (§3)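 Flooded-pot paddy assay: sow at 0–1 cm, flood to about 3 cm, then apply diluted emulsifiable concentrate by dropper, 120 g a.i. per 10 ares; greenhouse-grown.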

[5] = test system: Echinochloa crus-galli var. formosensis; experiment: as above; details: 120 g active ingredient per 10 ares, applied immediately after sowing, flooded pots, 14 days after application; for pest or weed control at 1200 g/ha: Echinochloa crus-galli, soil, 336 h, read-out: weed inhibition rate
Outline: as §3

[6] = test system: Amaranthus viridis; experiment: Test Example 3: herbicidal effect test by soil application in upland field; details: Amaranthus viridis, 120 g per 10 ares, sprayed one day after sowing, 14 days after application, read-out: weed inhibition rate
Outline: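 Weed inhibition (%) was assessed 14 days after treatment, in duplicate per concentration group. Seeds had been mixed into the upper 1 cm of upland alluvial loam, and the soil surface was sprayed one day later with the diluted emulsifiable concentrate at 120 g active ingredient per 10 ares.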

[7] = test system: Scirpus juncoides; experiment: Test Example 2: herbicidal effect test by application during growth period of paddy rice; details: Schoenoplectiella juncoides; 120 g per 10 ares; applied seven days after sowing, flooded pots; 14 days after application; read-out: weed inhibition rate
Outline: (§4)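 Herbicidal effect was scored 14 days after treatment, in duplicate per concentration. Weeds sown 0–1 cm deep in puddled, fertilized paddy soil under about 3 cm of standing water received a water-diluted emulsifiable concentrate by dropper 7 days post-sowing, at 120 g a.i. per 10 ares.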

[8] = test system: Echinochloa crus-galli var. formosensis; experiment: as above; details: Echinochloa crus-galli; 120 g per 10 ares; applied seven days after sowing, flooded pots; 14 days after application; read-out: weed inhibition rate
Outline: as §4

[9] = test system: Monochoria vaginalis; experiment: Test Example 6: herbicidal effect test by application during growth period of paddy rice (low dose); details: Pontederia vaginalis; 7.5 g per 10 ares; applied seven days after sowing, flooded pots; 14 days after application; read-out: weed inhibition rate
Outline: as §1

[10] = test system: Monochoria vaginalis; experiment: Test Example 2: herbicidal effect test by application during growth period of paddy rice; details: Pontederia vaginalis; 120 g per 10 ares; applied seven days after sowing, flooded pots; 14 days after application; read-out: weed inhibition rate
Outline: as §4

[11] = test system: Scirpus juncoides; experiment: Test Example 6: herbicidal effect test by application during growth period of paddy rice (low dose); details: Schoenoplectiella juncoides; 7.5 g per 10 ares; applied seven days after sowing, flooded pots; 14 days after application; read-out: weed inhibition rate
Outline: as §1

CCOC(C)O[C@H]1C[C@]2(C)O[C@@]1(C(C)C)C[C@H]2OCc1c(F)cccc1F (stereo partly drawn) [1-223, (1S,2R,4R,5S)-2-((2,6-difluorobenzyl)oxy)-5-(1-ethoxyethoxy)-4-isopropyl-1-methyl-7-oxabicyclo[2.2.1]heptane]
≥ 80%: inhibition at 75 g/ha [1] | inhibition at 75 g/ha [2] | inhibition at 75 g/ha [3] | pest or weed control at 1200 g/ha [4] | pest or weed control at 1200 g/ha [5] | inhibition at 1200 g/ha [6] | inhibition at 1200 g/ha [7] | inhibition at 1200 g/ha [8]

CC(C)[C@]12C[C@@H](OCc3ccccc3F)[C@](C)(C[C@@H]1I)O2 [1-753, (1S,2R,4R,SS)-2-[(2-fluorophenyl)methoxy]-5-iodo-1-methyl-4-isopropyl-7-oxabicyclo[2.2.1]heptane]
≥ 80%: inhibition at 75 g/ha [1] | inhibition at 75 g/ha [9] | inhibition at 75 g/ha [2] | inhibition at 75 g/ha [3] | weed inhibition rate [4] | weed inhibition rate [5] | inhibition at 1200 g/ha [6] | inhibition at 1200 g/ha [7] | inhibition at 1200 g/ha [8] | inhibition at 1200 g/ha [10]

CC(C)[C@]12C[C@@H](OCc3ccccc3F)[C@](C)(C/C1=N\O)O2 [2-197, (1R,4S,5R,E)-5-((2-fluorobenzyl)oxy)-1-isopropyl-4-methyl-7-oxabicyclo[2.2.1]heptan-2-one oxime]
≥ 80%: inhibition at 75 g/ha [1] | inhibition at 75 g/ha [9] | inhibition at 75 g/ha [2] | inhibition at 75 g/ha [3] | pest or weed control at 1200 g/ha [4] | pest or weed control at 1200 g/ha [5] | inhibition at 1200 g/ha [6] | inhibition at 1200 g/ha [7] | inhibition at 1200 g/ha [8] | inhibition at 1200 g/ha [10]

CC(C)[C@]12C[C@@H](OCc3ccccc3C#N)[C@](C)(C[C@@H]1Br)O2 [1-703, 2-[[(1S,2R,4R,5S)-5-bromo-1-methyl-4-isopropyl-7-oxabicyclo[2.2.1]heptan-2-yl]oxymethyl]benzonitrile]
≥ 80%: inhibition at 75 g/ha [1] | inhibition at 75 g/ha [3] | pest or weed control at 1200 g/ha [4] | pest or weed control at 1200 g/ha [5] | inhibition at 1200 g/ha [6] | inhibition at 1200 g/ha [7] | inhibition at 1200 g/ha [8] | inhibition at 1200 g/ha [10]

CC(C)[C@]12C[C@@H](OCc3ccccc3Br)[C@](C)(C[C@@H]1Br)O2 [1-694, (1S,2R,4R,5S)-5-bromo-2-[(2-bromophenyl)methoxy]-1-methyl-4-isopropyl-7-oxabicyclo[2.2.1]heptane]
≥ 80%: inhibition at 75 g/ha [1] | inhibition at 75 g/ha [9] | inhibition at 75 g/ha [2] | inhibition at 75 g/ha [3] | pest or weed control at 1200 g/ha [5] | inhibition at 1200 g/ha [6] | inhibition at 1200 g/ha [8] | inhibition at 1200 g/ha [10]

CO[C@H]1C[C@]2(C)O[C@@]1(C(C)C)C[C@H]2OCc1ccccc1C [1-151, (1 S,2R,4R,5S)-4-isopropyl-5-methoxy-l-methyl-2-((2-methylbenzyl)oxy)-7-oxabicyclo[2.2.1]heptane]
≥ 80%: inhibition at 75 g/ha [11] | inhibition at 75 g/ha [1] | inhibition at 75 g/ha [2] | inhibition at 75 g/ha [3] | weed inhibition rate [4] | weed inhibition rate [5] | inhibition at 1200 g/ha [7] | inhibition at 1200 g/ha [8] | inhibition at 1200 g/ha [10]

CC(C)[C@]12C=C[C@](C)(O1)[C@H](OCc1c(F)cccc1F)C2 [3-7, (1R,4S,5R)-5-[(2,6-difluorophenyl)methoxy]-4-methyl-1-isopropyl-7-oxabicyclo[2.2.1]hept-2-ene]
≥ 80%: inhibition at 75 g/ha [11] | inhibition at 75 g/ha [1] | inhibition at 75 g/ha [2] | inhibition at 75 g/ha [3] | pest or weed control at 1200 g/ha [4] | pest or weed control at 1200 g/ha [5] | inhibition at 1200 g/ha [7] | inhibition at 1200 g/ha [8]

CC(C)=CCO[C@@H]1C[C@]2(C(C)C)O[C@@]1(C)C[C@@H]2Br [1-672, (1S,2R,4R,5S)-5-bromo-1-methyl-2-(3-methylbut-2-enoxy)-4-isopropyl-7-oxabicyclo[2.2.1]heptane]
≥ 80%: inhibition at 75 g/ha [1] | inhibition at 75 g/ha [9] | pest or weed control at 1200 g/ha [5] | inhibition at 1200 g/ha [6] | inhibition at 1200 g/ha [7] | inhibition at 1200 g/ha [8] | inhibition at 1200 g/ha [10]

Cc1ccc(CO[C@@H]2C[C@]3(C(C)C)O[C@@]2(C)C[C@@H]3Br)cc1 [1-681, (1S,2R,4R,5S)-5-bromo-1-methyl-2-[(4-methylphenyl)methoxy]-4-isopropyl-7-oxabicyclo[2.2.1]heptane]
≥ 80%: inhibition at 75 g/ha [11] | inhibition at 75 g/ha [1] | inhibition at 75 g/ha [9] | inhibition at 75 g/ha [3] | pest or weed control at 1200 g/ha [4] | pest or weed control at 1200 g/ha [5] | inhibition at 1200 g/ha [7] | inhibition at 1200 g/ha [8] | inhibition at 1200 g/ha [10]

CCOC(C)O[C@H]1C[C@]2(C)O[C@@]1(C(C)C)C[C@H]2OCc1ccccc1C (stereo partly drawn) [1-208, (1R,2S,4S,5R)-2-(1-ethoxyethoxy)-1-isopropyl-4-methyl-5-((2-methylbenzyl)oxy)-7-oxabicyclo[2.2.1]heptane]
≥ 80%: inhibition at 75 g/ha [1] | inhibition at 75 g/ha [2] | inhibition at 75 g/ha [3] | pest or weed control at 1200 g/ha [4] | pest or weed control at 1200 g/ha [5] | inhibition at 1200 g/ha [6] | inhibition at 1200 g/ha [7] | inhibition at 1200 g/ha [8]

CC(C)[C@]12C[C@@H](OCc3cccc(F)c3)[C@](C)(CC1=O)O2 [2-351, (1R,4S,5R)-5-((3-fluorobenzyl)oxy)-1-isopropyl-4-methyl-7-oxabicyclo[2.2.1]heptan-2-one]
≥ 80%: inhibition at 75 g/ha [1] | inhibition at 75 g/ha [3] | pest or weed control at 1200 g/ha [4] | pest or weed control at 1200 g/ha [5] | inhibition at 1200 g/ha [6] | inhibition at 1200 g/ha [7] | inhibition at 1200 g/ha [8] | inhibition at 1200 g/ha [10]

CC(C)[C@]12C[C@@H](OCc3c(F)cccc3Cl)[C@](C)(C[C@@H]1Br)O2 [1-713, (1S,2R,4R,5S)-5-bromo-2-[(2-chloro-6-fluorophenyl)methoxy]-1-methyl-4-isopropyl-7-oxabicyclo[2.2.1]heptane]
≥ 80%: inhibition at 75 g/ha [1] | inhibition at 75 g/ha [9] | inhibition at 75 g/ha [2] | inhibition at 75 g/ha [3] | pest or weed control at 1200 g/ha [4] | pest or weed control at 1200 g/ha [5] | inhibition at 1200 g/ha [7] | inhibition at 1200 g/ha [8] | inhibition at 1200 g/ha [10]

CC(C)[C@]12C[C@@H](OCc3c(F)cccc3Cl)[C@](C)(CC1=O)O2 [2-28, (1R,4S,5R)-5-((2-chloro-6-fluorobenzyl)oxy)-1-isopropyl-4-methyl-7-oxabicyclo[2.2.1]heptan-2-one]
≥ 80%: inhibition at 75 g/ha [1] | inhibition at 75 g/ha [9] | inhibition at 75 g/ha [2] | inhibition at 75 g/ha [3] | pest or weed control at 1200 g/ha [4] | pest or weed control at 1200 g/ha [5] | inhibition at 1200 g/ha [7] | inhibition at 1200 g/ha [8] | inhibition at 1200 g/ha [10]

CC(C)[C@]12C[C@@H](OCc3cccc(F)c3)[C@](C)(C[C@@H]1Br)O2 [1-690, (1S,2R,4R,5S)-5-bromo-2-[(3-fluorophenyl)methoxy]-1-methyl-4-isopropyl-7-oxabicyclo[2.2.1]heptane]
≥ 80%: inhibition at 75 g/ha [1] | inhibition at 75 g/ha [9] | inhibition at 75 g/ha [2] | inhibition at 75 g/ha [3] | pest or weed control at 1200 g/ha [4] | pest or weed control at 1200 g/ha [5] | inhibition at 1200 g/ha [7] | inhibition at 1200 g/ha [8] | inhibition at 1200 g/ha [10]
